In experiment [1] the target is T1, DnaK (Escherichia coli, UniProt P0A6Y8).
T1 construct: full-length E. coli DnaK (residues 1–638); made in house; host or cells: E. coli BL21(DE3)
Kind of experiment: Surface plasmon resonance, immobilized DnaK. In kind it is binding. As for the experimental part: (§1) ClpB, DnaK, and the NBD of DnaK were extensively dialyzed against the SPR buffer (20-mM Hepes, pH 7.4, 150-mM NaCl, 20-mM MgCl2, 1-mM EDTA, 1-mM DTT). After dialysis, the protein concentration was determined by the Bradford method. The DBeQ–protein interactions were studied using a Biacore T200 instrument (GE Healthcare) at 25 °C. The proteins were diluted to 300 μg/ml in 10-mM sodium acetate buffer (pH 5 for ClpB DnaK or pH 4 for NBD) and immobilized on HC1500M sensor chips (Xantec) by standard amine coupling chemistry as described previously ([70]). A reference flow cell was created by ethyl(dimethylaminopropyl) carbodiimide/N-hydroxysuccinimide activation followed by quenching with 1 M ethanolamine (pH 9.0). Solvent correction curves were obtained at the beginning and end and after every 50 injection cycles by injecting varying DMSO concentrations (4.0, 4.4, 4.6, 4.8, 5.0, 5.2, 5.4, and 5.9% [v/v]). […]
(§2) Binding isotherms were obtained with the ligand diluted to different concentrations in the SPR running buffer HBSMTD (20-mM Hepes, pH 7.4, 140-mM NaCl, 20-mM MgCl2, 5% (v/v) DMSO, 0.005% (v/v) Tween-20). […] The dissociation constants determined from those experiments were ∼20 μM for ATPγS and ∼2 mM for adenosine. […]
(§3) The resulting sensorgrams were analyzed using Biacore T200 Evaluation Software v3.0 according to the following procedure. […]

Experiment [2] deals with T2, DnaK NBD (Escherichia coli, UniProt P0A6Y8).
T2 construct: the NBD of E. coli DnaK (residues 1–388); His-tag (pET28a) (C); made in house; host or cells: E. coli BL21(DE3)
Kind of experiment: Surface plasmon resonance, immobilized DnaK NBD. The experiment is classed as binding. The method, then: as §1, §2, §3

For experiment [3], the system named is E. coli MC4100ΔclpB. Nature of the experiment: Bacterial growth and viability, MC4100ΔclpB. The experiment is classed as cell-based, Escherichia coli. To be noted: 37 °C. The method, then:
E. coli MC4100, MC4100ΔclpB, dnaK103, and dnaK756 strains were used to determine an influence of DBeQ on bacterial growth and viability. Bacteria were maintained in the LB media, and in the case of the MC4100ΔclpB strain, LB was supplemented with 30 μg/ml kanamycin. All experiments were initiated by preparing overnight cultures inoculated from single colonies and grown at 37 °C. The dnaK103 and dnaK756 overnight cultures were grown at 30 °C. On the following day, the cultures were diluted 100-fold in 10 ml of LB without antibiotics and incubated at 37 °C. The culture optical density was monitored at 600 nm. When absorbance at 600 nm reached 0.4, the culture was divided into 1-ml aliquots and supplemented with 10 μl of DMSO or different concentrations of DBeQ in DMSO. The samples were immediately transferred into an incubator/shaker at temperature 37, 45, or 50 °C. Bacteria were cultured for up to 4 h with shaking (200 RPM). At specific time points, 100 μl of each culture was withdrawn and serially diluted in sterile 0.9% NaCl up to 10^6-fold dilution. To estimate the number of viable cells, 5 μl or 10 μl of the diluted cultures was spread on the LB-agar plate without an antibiotic. […] On the following day, the bacterial colonies were counted and the colony-forming units/ml were calculated.

Experiment [4] has as its target firefly luciferase (Photinus pyralis, UniProt P08659). Kind of experiment: Native firefly luciferase activity. The following applies: 100 µM compound. In kind it is biochemical.
The target in experiment [5] is T3, wt ClpB (Escherichia coli, UniProt P63284).
T3 construct: made in house
Kind of experiment: Surface plasmon resonance, immobilized wt ClpB. In kind it is binding. The method, then:
ClpB, DnaK, and the NBD of DnaK were extensively dialyzed against the SPR buffer (20-mM Hepes, pH 7.4, 150-mM NaCl, 20-mM MgCl2, 1-mM EDTA, 1-mM DTT). After dialysis, the protein concentration was determined by the Bradford method. The DBeQ–protein interactions were studied using a Biacore T200 instrument (GE Healthcare) at 25 °C. The proteins were diluted to 300 μg/ml in 10-mM sodium acetate buffer (pH 5 for ClpB DnaK or pH 4 for NBD) and immobilized on HC1500M sensor chips (Xantec) by standard amine coupling chemistry as described previously ([70]). A reference flow cell was created by ethyl(dimethylaminopropyl) carbodiimide/N-hydroxysuccinimide activation followed by quenching with 1 M ethanolamine (pH 9.0). Solvent correction curves were obtained at the beginning and end and after every 50 injection cycles by injecting varying DMSO concentrations (4.0, 4.4, 4.6, 4.8, 5.0, 5.2, 5.4, and 5.9% [v/v]). All experiments were performed using a flow rate of 30 μl/min.
Binding isotherms were obtained with the ligand diluted to different concentrations in the SPR running buffer HBSMTD (20-mM Hepes, pH 7.4, 140-mM NaCl, 20-mM MgCl2, 5% (v/v) DMSO, 0.005% (v/v) Tween-20). Replicate injections were performed for all samples, and a buffer-only injection was performed for every 12 injection cycles. To test the structural integrity of ClpB after immobilization on the sensor chips, we performed control titrations with ATPγS and adenosine. The dissociation constants determined from those experiments were ∼20 μM for ATPγS and ∼2 mM for adenosine. […] Moreover, the immobilized ClpB discriminated between a nucleotide analog and a nucleoside, which indicated an adequate structural integrity of ClpB on the sensor chips.
The resulting sensorgrams were analyzed using Biacore T200 Evaluation Software v3.0 according to the following procedure. Solvent correction curves were generated and applied to all data sets, and all sensorgrams were double-referenced by subtracting the most recent buffer blank injection. The signal immediately before injection stop of these corrected sensorgrams was treated as the binding response. GraphPad Prism was used for nonlinear least-squares fitting of the model assuming either noncooperative or cooperative binding of DBeQ to DnaK and ClpB, respectively.

The subject of experiment [6] is ClpB E279Q, E678Q. Kind of experiment: ATPase activity of ClpB Walker B variants E279Q and E678Q. The experiment is classed as biochemical, Escherichia coli. The following applies: with/without κ-casein. As for the experimental part: To determine the ATPase activity, ClpB was diluted to 28 μg/ml (49-nM hexamer) in buffer C (50-mM Tris-HCl, pH 7.4, 20-mM MgCl2, 1-mM EDTA, 0.5-mM tris(2-carboxyethyl)phosphine [TCEP]). In some experiments, the ClpB solution was supplemented with 17.4 μg/ml (10 μM) κ-casein. The ClpB aliquots (18 μl) were mixed with 1 μl of the investigated compounds at different concentrations in 100% DMSO or with DMSO as a control. A sample without ClpB was used as a baseline control. After a 10-min preincubation at 37 or 45 °C, the ATP hydrolysis reaction was initiated by adding 1 μl of 100-mM ATP. The samples were incubated for 60 min (basal ClpB activity in the absence of κ-casein) or 15 min (in the presence of κ-casein) at 37 °C or 30 min at 45 °C in the absence of casein. For the E678Q ClpB variant, the incubation time in the presence of κ-casein was 60 min. After incubation, 15 μl of each sample was mixed with 200 μl of the ammonium molybdate/malachite green reagent ([67]) dispensed into a 96-well plate, followed by an addition of 30 μl of 34% sodium citrate ([68]). The plate was agitated inside a Synergy H1 reader (BioTek, Winooski, VT) for 15 min at room temperature, and the samples’ absorbance was measured at 630 nm. The readouts for ClpB-containing samples were corrected for absorbance of samples without ClpB, to account for nonenzymatic production of inorganic phosphate. […]

SMILES strings stand for the structures. Several values for one entry are separate records, joined by “and”; a condition that tells them apart may be missing. Identical values can stand only once. Entries after “also recorded” stand apart in the source; their conditions may differ.

T3 sequence (P63284 whole entry): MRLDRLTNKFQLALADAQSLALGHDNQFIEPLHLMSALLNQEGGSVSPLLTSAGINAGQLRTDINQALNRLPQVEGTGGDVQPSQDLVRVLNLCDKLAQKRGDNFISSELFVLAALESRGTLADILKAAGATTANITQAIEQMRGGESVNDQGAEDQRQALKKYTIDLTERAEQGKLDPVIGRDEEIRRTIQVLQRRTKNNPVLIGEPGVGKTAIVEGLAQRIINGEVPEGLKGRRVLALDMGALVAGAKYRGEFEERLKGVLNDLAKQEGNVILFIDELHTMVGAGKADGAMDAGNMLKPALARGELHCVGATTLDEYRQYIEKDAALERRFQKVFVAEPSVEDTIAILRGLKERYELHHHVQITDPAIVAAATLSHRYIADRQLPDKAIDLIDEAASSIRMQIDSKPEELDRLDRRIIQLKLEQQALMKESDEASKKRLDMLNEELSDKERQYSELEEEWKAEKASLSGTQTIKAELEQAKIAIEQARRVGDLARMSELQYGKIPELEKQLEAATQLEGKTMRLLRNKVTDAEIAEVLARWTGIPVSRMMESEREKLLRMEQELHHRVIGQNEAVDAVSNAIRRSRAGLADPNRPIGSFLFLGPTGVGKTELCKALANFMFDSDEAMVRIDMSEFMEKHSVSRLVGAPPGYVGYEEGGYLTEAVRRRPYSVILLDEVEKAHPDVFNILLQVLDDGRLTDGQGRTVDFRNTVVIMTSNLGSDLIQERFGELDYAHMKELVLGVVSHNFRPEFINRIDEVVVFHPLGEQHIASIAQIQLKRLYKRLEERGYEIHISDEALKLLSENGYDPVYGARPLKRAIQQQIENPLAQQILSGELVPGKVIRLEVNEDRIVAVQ
T1 sequence (P0A6Y8 whole entry, the tested form may be a part): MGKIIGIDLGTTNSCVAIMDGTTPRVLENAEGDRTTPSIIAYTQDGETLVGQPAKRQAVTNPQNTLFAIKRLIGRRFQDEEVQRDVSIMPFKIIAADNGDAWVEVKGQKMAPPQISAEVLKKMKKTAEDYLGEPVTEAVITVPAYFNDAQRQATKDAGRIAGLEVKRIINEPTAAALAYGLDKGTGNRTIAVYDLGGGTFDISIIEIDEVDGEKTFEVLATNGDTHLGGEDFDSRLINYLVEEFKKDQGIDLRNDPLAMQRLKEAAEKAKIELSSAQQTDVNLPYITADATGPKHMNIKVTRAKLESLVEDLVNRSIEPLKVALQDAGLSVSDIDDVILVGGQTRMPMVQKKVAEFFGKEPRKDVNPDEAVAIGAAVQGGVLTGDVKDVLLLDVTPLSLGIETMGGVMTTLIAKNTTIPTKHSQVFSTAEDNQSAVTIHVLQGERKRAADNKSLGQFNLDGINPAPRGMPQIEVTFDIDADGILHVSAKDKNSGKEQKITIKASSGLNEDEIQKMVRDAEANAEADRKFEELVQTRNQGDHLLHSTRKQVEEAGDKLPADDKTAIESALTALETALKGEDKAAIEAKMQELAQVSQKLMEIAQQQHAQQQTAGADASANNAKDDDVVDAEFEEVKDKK
T2 sequence (P0A6Y8 1-388): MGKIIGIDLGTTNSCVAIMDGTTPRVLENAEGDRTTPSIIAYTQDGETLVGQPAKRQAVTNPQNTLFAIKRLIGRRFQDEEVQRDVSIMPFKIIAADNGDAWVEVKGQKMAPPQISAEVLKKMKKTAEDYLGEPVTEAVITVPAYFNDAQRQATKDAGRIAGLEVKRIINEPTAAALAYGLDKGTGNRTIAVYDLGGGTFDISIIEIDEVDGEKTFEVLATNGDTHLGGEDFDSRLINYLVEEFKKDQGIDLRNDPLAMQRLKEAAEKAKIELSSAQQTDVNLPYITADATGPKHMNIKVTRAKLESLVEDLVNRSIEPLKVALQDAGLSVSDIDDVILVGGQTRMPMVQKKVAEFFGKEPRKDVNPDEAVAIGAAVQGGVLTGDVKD
firefly luciferase, sequence (P08659 whole entry): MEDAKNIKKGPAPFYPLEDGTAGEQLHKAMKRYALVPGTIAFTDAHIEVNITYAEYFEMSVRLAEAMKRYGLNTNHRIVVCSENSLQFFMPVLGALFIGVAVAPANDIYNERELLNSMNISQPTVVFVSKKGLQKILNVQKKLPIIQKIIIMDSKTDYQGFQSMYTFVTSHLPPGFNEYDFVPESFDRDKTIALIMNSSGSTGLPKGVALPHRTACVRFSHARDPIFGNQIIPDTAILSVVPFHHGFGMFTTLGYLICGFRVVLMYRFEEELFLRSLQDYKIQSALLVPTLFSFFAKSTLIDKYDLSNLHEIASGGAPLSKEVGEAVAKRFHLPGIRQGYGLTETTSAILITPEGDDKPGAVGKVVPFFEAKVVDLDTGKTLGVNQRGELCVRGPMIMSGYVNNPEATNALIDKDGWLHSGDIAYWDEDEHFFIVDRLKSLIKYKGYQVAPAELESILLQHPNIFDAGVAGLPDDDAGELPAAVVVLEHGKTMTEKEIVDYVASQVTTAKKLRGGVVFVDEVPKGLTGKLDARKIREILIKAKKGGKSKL

Take `c1ccc(CNc2nc(NCc3ccccc3)c3ccccc3n2)cc1` [DBeQ, N^2,N^4-dibenzylquinazoline-2,4-diamine]: in experiment [1], the “Bmax (SPR signal at saturation), DnaK” value is on record as 2.07 ± 0.20. Also, the Kd in experiment [1] (apparent Kd, DBeQ binding to DnaK, SPR, non-cooperative model, approximate, close to ligand solubility limit) was 105 µM and ~100 µM; in experiment [2] it was 95 ± 16 µM; in experiment [5] (apparent Kd, DBeQ binding to ClpB, SPR, 25 °C, cooperative binding model), 64.4 µM and ~60 µM. For the same compound, the “Bmax (SPR signal at saturation), DnaK NBD” value in experiment [2] (SPR) is recorded as 1.98 ± 0.20. In experiment [3], the “effect on growth of ΔclpB strain” value is recorded as “nearly eliminated; also recorded: effects were eliminated”. Also, the “effect on native luciferase activity” value in experiment [4] is given as “not affected”. Further, the “Bmax (SPR signal at saturation), ClpB” value in experiment [5] turned out to be 1.09 ± 0.02. Besides, in experiment [5] (SPR, cooperative binding model), the “Hill coefficient, DBeQ binding to ClpB” value was 2.3 ± 0.3 and ~2.3 and > 2. The “effect on ATPase of the two ATP-binding domains (D1, D2)” value in experiment [6] is “only the C-terminal one (i.e., D2) showed casein-induced activation and was affected by DBeQ”.
